Results on two substances are retold here after patent US20100029702A1, “Method For Identification of Compound Having Anti-Anxiety Effect” (priority 2006, published 2010).

The subject of one test is CHO-K1 cell strain. The test can be described thus: Changes in intracellular Ca2+ concentration in CHO-K1 host cell not transfected (negative control). The test is classed as cell-based, Chinese hamster. To be noted: CHO-K1 not transfected; peptide 1 nM (Example 5). On the procedure:
(§1) The specific method for measuring changes in the intracellular Ca^2+ concentration in the HA-ph01207#10-6 cell strain induced by CCK-8S (SEQ ID NO: 14) and the results are described below. The HA-ph01207#10-6 cell strain was seeded on a 96-well plate (a plate with a black wall and a transparent bottom) at a cell count of 2×10^4/100 μL medium/well and cultured at 37° C. in the presence of 5% CO2. As a medium, DMEM/F12 (Gibco) containing 10% fetal calf serum (Moregate) was used. On the following day, 50 μL of the medium was removed from each well, 50 μL of a loading buffer was added to each well, and the mixture was reacted at room temperature for 1.5 h, so that a fluorescent dye contained in the loading buffer should be taken up into the cell. The loading buffer was prepared by dissolving component A of the FLIPR Calcium 3 Assay Kit (Molecular Device) in a solution obtained by adding 0.1 mL of 500 mM probenecid (Sigma) to 9.9 mL of component B. After reaction, changes over time in the fluorescence intensity in each well after addition of CCK-8S (Peptide Institute, Inc.) were measured using the FLEX station (Molecular Device). Furthermore, similar measurement was performed for CCK-8NS (Peptide Institute, Inc.) and CCK-4 (Peptide Institute, Inc.). 0.52 mg of CCK-8S (SEQ ID NO: 14) was dissolved in 4.5 mL of 1% NaHCO3 (Wako) to prepare a solution having 0.1 mM concentration. 0.53 mg of CCK-8NS was dissolved in 0.50 mL of dimethyl sulfoxide (DMSO, Sigma), and then 4.50 mL of redistilled water H2O was added to prepare a solution having 0.1 mM concentration. 0.54 mg of CCK-4 was dissolved in 0.46 mL of DMSO, 4.09 mL of redistilled water was added to prepare a solution having 0.2 mM concentration. CCK-8S (SEQ ID NO: 14), CCK-8NS, and CCK-4 were diluted in phosphate-buffered physiological saline (PBS) to prepare 5 nM solutions, and 25 μL each was added (final concentration 1 nM) to perform measurement. As a positive control for including an increase in the intracellular Ca^2+ concentration, A23187 (Calbiochem) was used at a final concentration of 10 μM. As a negative control, the CHO-K1 cell strain used to prepare the HA-ph01207#10-6 cell strain as a host was used. Since the CHO-K1 cell strain was not transfected with the ph01207-expressing vector, the ph01207 gene product was not expressed.
Changes in the intracellular calcium (Ca^2+) concentration induced by CCK-8S were measured by a method similar to the method described in Example 5 using the 7tmHR stably-expressing strain and the hk01941 stably-expressing strain prepared in Example 7. As a control, a host cell not transfected with the 7tmHR-expressing vector or the hk01941-expressing vector was also used.
Cells were seeded in a 96-well plate (a plate with a black wall and a transparent bottom) at a cell count of 3×10^4/100 μL of medium/well and cultured overnight at 37° C. in a 5% CO2 incubator. On the following day, 50 μL of the medium was removed from each well, […] of a loading buffer was added to each well, and the mixture was reacted at room temperature for 1 h, so that a fluorescent dye contained in the loading buffer was taken up into the cell. The loading buffer was prepared by a method similar to the method described in Example 5. After reaction, changes over time in the fluorescence intensity in each well after addition of CCK-8S were measured using the FLEX station (Molecular Device). CCK-8S was used at a final concentration of 10 pM to 1 μM. Furthermore, as a positive control of the assay, A23187 was used at a final concentration of 20 μM.
Cells were seeded in a 96-well plate (a plate with a black wall and a transparent bottom) at a cell count of 3×10^4/100 μL of medium/well and cultured overnight at 37° C. in a 5% CO2 incubator. […]

Test [1] has as its target T1, protein encoded by ph01207 (Homo sapiens, UniProt O60241, DEL308-362).
T1 construct: expressed in transfected cells; host or cells: CHO-K1 (HA-ph01207#10-6, FERM BP-10101), T8HA-attR/pCINeo
T1 sequence (O60241 with tags, fused parts or gaps DEL308-362): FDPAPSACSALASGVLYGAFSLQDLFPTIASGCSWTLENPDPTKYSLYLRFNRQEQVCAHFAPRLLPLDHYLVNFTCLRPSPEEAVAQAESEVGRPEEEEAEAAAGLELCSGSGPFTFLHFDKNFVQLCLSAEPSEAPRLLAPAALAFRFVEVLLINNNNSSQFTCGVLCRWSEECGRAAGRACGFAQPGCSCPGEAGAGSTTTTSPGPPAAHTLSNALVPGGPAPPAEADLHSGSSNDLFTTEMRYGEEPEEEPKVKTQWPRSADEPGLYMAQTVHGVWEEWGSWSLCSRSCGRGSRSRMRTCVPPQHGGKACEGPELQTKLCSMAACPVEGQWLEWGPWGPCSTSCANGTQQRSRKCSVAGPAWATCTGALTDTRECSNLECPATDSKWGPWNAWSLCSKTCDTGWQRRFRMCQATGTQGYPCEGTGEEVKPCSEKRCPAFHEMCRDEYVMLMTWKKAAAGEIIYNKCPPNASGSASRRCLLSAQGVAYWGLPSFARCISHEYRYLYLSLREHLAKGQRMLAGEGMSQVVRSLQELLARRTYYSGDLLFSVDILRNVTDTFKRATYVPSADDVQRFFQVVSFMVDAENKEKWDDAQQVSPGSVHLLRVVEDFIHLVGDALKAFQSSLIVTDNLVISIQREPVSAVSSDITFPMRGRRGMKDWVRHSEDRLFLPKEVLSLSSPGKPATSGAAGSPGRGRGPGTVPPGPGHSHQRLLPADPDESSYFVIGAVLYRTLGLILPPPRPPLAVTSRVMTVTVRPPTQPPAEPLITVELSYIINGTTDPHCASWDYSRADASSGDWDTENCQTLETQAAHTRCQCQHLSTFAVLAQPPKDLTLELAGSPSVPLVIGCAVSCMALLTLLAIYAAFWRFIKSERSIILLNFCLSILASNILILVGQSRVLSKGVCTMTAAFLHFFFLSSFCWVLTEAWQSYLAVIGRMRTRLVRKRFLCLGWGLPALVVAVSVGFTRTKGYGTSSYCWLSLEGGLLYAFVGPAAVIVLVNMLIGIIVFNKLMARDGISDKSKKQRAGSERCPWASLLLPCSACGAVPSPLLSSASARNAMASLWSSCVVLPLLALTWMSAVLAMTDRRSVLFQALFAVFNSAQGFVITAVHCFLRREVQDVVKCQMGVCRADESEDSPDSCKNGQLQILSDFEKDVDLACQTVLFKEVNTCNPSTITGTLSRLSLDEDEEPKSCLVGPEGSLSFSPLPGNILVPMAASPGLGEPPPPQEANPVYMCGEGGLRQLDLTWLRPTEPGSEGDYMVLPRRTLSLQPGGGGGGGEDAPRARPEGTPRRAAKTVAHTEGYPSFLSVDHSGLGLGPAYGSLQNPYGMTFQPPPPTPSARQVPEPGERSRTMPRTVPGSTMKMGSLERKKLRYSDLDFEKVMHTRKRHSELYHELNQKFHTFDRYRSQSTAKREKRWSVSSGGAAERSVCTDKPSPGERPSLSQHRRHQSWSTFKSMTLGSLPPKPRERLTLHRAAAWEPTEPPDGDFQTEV
The test can be described thus: Changes in intracellular Ca2+ concentration in HA-ph01207#10-6 cell strain (CHO-K1 stably expressing ph01207). To be noted: peptide at final concentration 1 nM. It counts as cell-based. On the procedure: Changes in the intracellular calcium (Ca^2+) concentration induced by CCK-8S (SEQ ID NO: 14), CCK-8NS, or CCK-4 were measured using the cell strains expressing ph01207 prepared in Example 2. The cell strains prepared in Example 2 were eight strains that expressed the protein encoded by ph01207 as FLAG-tag fusion proteins and four strains that expressed the protein encoded by ph01207 as HA-tag fusion proteins. Of these, the HA-ph01207#10-6 cell strain, a strain obtained by cloning one of the cell strains that stably expressed the protein encoded by ph01207 as HA-tag fusion proteins, was used in this example. CCK-8NS was a CCK octapeptide having the same amino acid sequence as that of CCK-8S (SEQ ID NO: 14), but a region from the C terminus to the seventh tyrosine residue was not sulfated. CCK-4 was a tetrapeptide comprising residues from the C terminus to the fourth amino acid of CCK-8S (SEQ ID NO: 14).
as §1, with “CCK-8S (SEQ ID NO: 14), CCK-8NS, and CCK-4 were diluted in phosphate-buffered physiological saline (PBS) to prepare 5 nM solutions, and 25 μL each was added (final concentration 1 nM) to perform measurement. As a positive control for including an increase in the intracellular Ca^2+ concentration, A23187 (Calbiochem) was used at a final concentration of 10 μM. As a negative control, the CHO-K1 cell strain used to prepare the HA-ph01207#10-6 cell strain as a host was used. Since the CHO-K1 cell strain was not transfected with the ph01207-expressing vector, the ph01207 gene product was not expressed.” left out

For “CCK-4: tetrapeptide comprising residues from the C terminus to the fourth amino acid of CCK-8S”, the “Change in intracellular Ca2+ concentration (fluorescence intensity)” value in the test with CHO-K1 cell strain is given as “not increased”; in test [1] it was “did not increase”.

CCK-8 nonsulfated form [CCK-8NS]: the “Change in intracellular Ca2+ concentration (fluorescence intensity)” value in the test on CHO-K1 cell strain is “not increased”; in test [1] it was “did not increase”.
